The assay deals with PKC mediated IL-2 production. Put plainly: IL-2 ELISA, human primary T cell, anti CD3+CD28+. Type of assay: cell-based. Conditions: Homo sapiens, T-cell, 24 h, human primary T cells stimulated with αCD3 and αCD28, 24 hours. Summed up:
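IL-2 was quantified by ELISA in 24 h supernatants from primary human T cells given a 1 h compound pre-treatment at 37° C. These cells had been expanded from blood mononuclear cells on αCD3/αCD28 with IL-2, and the IL-2 was removed by washing. Stimulation used plate-bound αCD3 ([…]) plus αCD28 (5 μg/ml); the counter assay used PMA (0.5 ng/ml) with ionomycin (0.1 uM) instead.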

The structures appear in SMILES notation. Where only a bound is given, the exact number is not on record here.

As a reminder, the EC50 is the midpoint of the concentration-response curve. `Cn1nnn(-c2cc(Nc3ncc(F)c(N[C@@H]4C[C@@H]5CCCN5C(C)(C)C4)n3)c(F)cc2CCO)c1=O` [Compound 93, 1-(5-(4-((7R,8aS)-octahydro-5,5-dimethylindolizin-7-ylamino)-5-fluoropyrimidin-2-ylamino)-4-fluoro-2-(2-hydroxyethyl)phenyl)-4-methyl-1H-tetrazol-5(4H)-one] yielded an EC50 of 100 to 500 nM.

For `[2H]C1(Oc2ccc(Nc3ncc(F)c(N[C@H]4CCN5[C@@H](CCC5(C)C)C4)n3)cc2Cl)CC(O)C1` (stereo partly drawn) [Compound 313, 3-(2-Chloro-4-((4-(((7S,8aS)-3,3-dimethyloctahydroindolizin-7-yl)amino)-5-fluoropyrimidin-2-yl)amino)phenoxy)cyclobutan-3-d-1-ol], the concentration for a half-maximal effect (EC50) is 100 to 500 nM.

`CC1(C)C[C@H](Nc2nc(Nc3ccc(OCC(O)(C(F)(F)F)C(F)(F)F)c(C#N)c3)ncc2F)C[C@@H]2CCCN21` [Compound 209, 5-((4-(((7R,8aS)-5,5-dimethyloctahydroindolizin-7-yl)amino)-5-fluoropyrimidin-2-yl)amino)-2-(3,3,3-trifluoro-2-hydroxy-2-(trifluoromethyl)propoxy)benzonitrile] had an EC50 of 100 to 500 nM.

On to `CC1(C)CC[C@H]2C[C@@H](Nc3nc(Nc4ccc(OCCO)c(OC(F)F)c4)ncc3F)CCN21` [Compound 303, 2-(2-(Difluoromethoxy)-4-((4-(((7S,8aS)-3,3-dimethyloctahydroindolizin-7-yl)amino)-5-fluoropyrimidin-2-yl)amino)phenoxy)ethan-1-ol], for which the concentration for a half-maximal effect (EC50) lay within 100 to 500 nM.

In the case of `CC1(C)Oc2ccc(Nc3ncc(F)c(N[C@@H]4C[C@@H]5CCCN5C(C)(C)C4)n3)cc2-n2c1nn(C1COC1)c2=O` [Compound 251, 5-fluoro-N2-(1H-2,4-dihydron-4,4-dimethyl-2-(oxetan-3-yl)[1,2,4]triazolo[3,4-c][1,4]benzoxazin-1-one-8-yl)-N4-((7R,8aS)-octahydro-5,5-dimethylindolizin-7-yl)pyrimidine-2,4-diamine], the EC50 fell in the range of 1000 to 10000 nM.

In turn, `CC1(C)C[C@H](Nc2nc(Nc3ccc(Cl)c(-n4nnnc4C4CC4)c3)ncc2Cl)C[C@@H]2CCCN21` [Compound 182, 5-chloro-N2-(4-chloro-3-(5-cyclopropyl-1H-tetrazol-1-yl)phenyl)-N4-((7R,8aS)-5,5-dimethyloctahydroindolizin-7-yl)pyrimidine-2,4-diamine] displayed an EC50 below 100 nM.

Take `CC1(C)CC(Nc2nc(Nc3ccc(O[C@H]4CCOC4)c(C#N)c3)ncc2F)CC2CCCN21` (mixture of isomers) [Compound 60, 2-((S)-tetrahydrofuran-3-yloxy)-5-(5-fluoro-4-(octahydro-5,5-dimethylindolizin-7-ylamino)pyrimidin-2-ylamino)benzonitrile]: the EC50 was in the range of 100 to 500 nM.

As for `Cn1nnn(-c2cc(Nc3ncc(C#N)c(N[C@@H]4C[C@@H]5CCCN5C(C)(C)C4)n3)c(F)cc2O[C@H]2CCOC2)c1=O` [Compound 112], the EC50 fell in the range of 100 to 500 nM.

`C[C@@H](O)COc1cc(F)c(Nc2ncc(C#N)c(N[C@@H]3C[C@@H]4CCCN4C(C)(C)C3)n2)cc1-n1nnn(C)c1=O` [Compound 314, 4-((7R,8aS)-octahydro-5,5-dimethylindolizin-7-ylamino)-2-(4-((R)-2-hydroxypropoxy)-2-fluoro-5-(4,5-dihydro-4-methyl-5-oxotetrazol-1-yl)phenylamino)pyrimidine-5-carbonitrile] came in with a concentration for a half-maximal effect (EC50) of 100 to 500 nM.

(Values after US9682976B2, “Protein kinase C inhibitors and uses thereof” (Rigel Pharmaceuticals, Inc., priority 2012, dated 2017).)
